Experimental data taken from ChEMBL document CHEMBL1201862, “PubChem BioAssay data set” (2004).
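In this assay, cells in 96-well plates receive the compound at five concentrations for 48 hours. Endpoints are linearly interpolated between the surrounding concentrations. At the GI50, growth is halved.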 Activity calls are given as the source filed them. Rule as the data show it: active = GI50 up to about 1.1 µM and inactive = higher.

Experiments:
Test in all cases: inhibition of tumour cell growth, NCI panel, 48 h
UACC-62 = tested on: UACC-62
K562 = tested on: K562
SR = tested on: SR
HT-29 = tested on: HT-29
NCI/ADR-RES = tested on: NCI/ADR-RES
TK-10 = tested on: TK-10
LOX IMVI = tested on: LOX IMVI
SF-539 = tested on: SF-539
SF-295 = tested on: SF-295
Hs-578T = tested on: Hs-578T
SK-MEL-2 = tested on: SK-MEL-2
NCI-H23 = tested on: NCI-H23
SK-MEL-28 = tested on: SK-MEL-28
PC-3 = tested on: PC-3
HOP-92 = tested on: HOP-92
COLO 205 = tested on: COLO 205
NCI-H522 = tested on: NCI-H522
SN12C = tested on: SN12C
SNB-19 = tested on: SNB-19
HOP-62 = tested on: HOP-62

Row | Structure (SMILES) | GI50 (UACC-62) | GI50 (K562) | GI50 (SR) | GI50 (HT-29) | GI50 (NCI/ADR-RES) | GI50 (TK-10) | GI50 (LOX IMVI) | GI50 (SF-539) | GI50 (SF-295) | GI50 (Hs-578T) | GI50 (SK-MEL-2) | GI50 (NCI-H23) | GI50 (SK-MEL-28) | GI50 (PC-3) | GI50 (HOP-92) | GI50 (COLO 205) | GI50 (NCI-H522) | GI50 (SN12C) | GI50 (SNB-19) | GI50 (HOP-62)
1 | CN1/C(=C\N=O)C(C)(C)N(O)C1(C)C | > 100 µM (inactive) | > 100 µM (inactive) | > 100 µM (inactive) | > 100 µM (inactive) | > 100 µM (inactive) | > 100 µM (inactive) | > 100 µM (inactive) | > 100 µM (inactive) | > 100 µM (inactive) | > 100 µM (inactive) | > 100 µM (inactive) | > 100 µM (inactive) | > 100 µM (inactive) | > 100 µM (inactive) | > 100 µM (inactive) | > 100 µM (inactive) | > 100 µM (inactive) | > 100 µM (inactive) | > 100 µM (inactive) | > 100 µM (inactive)
2 | CC1CC[C@@]2(OC1)OC1C[C@H]3[C@@H]4CC[C@H]5CC(OC6OC(CO)C(OC7OC(CO)C(O)C(O)C7O)C(O)C6O)CCC5(C)[C@H]4CCC3(C)C1[C@@H]2C (stereo not given in full) | 10.1 µM (inactive) | 12.5 µM (inactive) | 9.59 µM (inactive) | 7.35 µM (inactive) | 9.64 µM (inactive) | 9.64 µM (inactive) | 4.58 µM (inactive) | 8.38 µM (inactive) | 8.55 µM (inactive) | 8.57 µM (inactive) | 7.85 µM (inactive) | 8.81 µM (inactive) | 9.2 µM (inactive) | 7.45 µM (inactive) | 8.57 µM (inactive) | 6.89 µM (inactive) | 6.19 µM (inactive) | 7.35 µM (inactive) | 9.04 µM (inactive) | 6.03 µM (inactive)
3 | COc1cc(/C=C2/SC(c3ccccc3)N(c3ccc(Cl)cc3)C2=O)cc(OC)c1OC (stereo not given) | 2.02 µM (inactive) | 0.244 µM (active) | 7.6 µM (inactive) | > 100 µM (inactive) | 25.9 µM (inactive) | > 100 µM (inactive) | 50.8 µM (inactive) | > 100 µM (inactive) | 3.27 µM (inactive) | > 100 µM (inactive) | > 20.6 µM (inactive) | 17.9 µM (inactive) | > 56.6 µM (inactive) | 28.6 µM (inactive) | > 100 µM (inactive) | 1.3 µM (inactive) | 18.3 µM (inactive) | > 32 µM (inactive) | > 58.2 µM (inactive) | > 29.4 µM (inactive)
4 | CC(C)(C)c1ccc(C(C)(C)C)c(N2C(=O)[C@@H]3[C@@H]4C=C[C@@H](C4)[C@]3(C)C2=O)c1 | 13.1 µM (inactive) | 26.8 µM (inactive) | 5.2 µM (inactive) | 29.2 µM (inactive) | 29.6 µM (inactive) | 35 µM (inactive) | 13.9 µM (inactive) | 51.5 µM (inactive) | 27.7 µM (inactive) | 24.2 µM (inactive) | 20.6 µM (inactive) | 45.1 µM (inactive) | 31.3 µM (inactive) | 20.2 µM (inactive) | 0.869 µM (active) | 42.2 µM (inactive) | 16.1 µM (inactive) | 20.1 µM (inactive) | > 100 µM (inactive) | 44 µM (inactive)
5 | Cc1cc(NN)nc2[nH]nc(N)c12 | > 100 µM (inactive) | > 100 µM (inactive) | 69.5 µM (inactive) | > 100 µM (inactive) | > 100 µM (inactive) | > 100 µM (inactive) | > 100 µM (inactive) | > 100 µM (inactive) | > 100 µM (inactive) | > 100 µM (inactive) | > 100 µM (inactive) | > 100 µM (inactive) | > 100 µM (inactive) | > 100 µM (inactive) | > 100 µM (inactive) | > 100 µM (inactive) | > 100 µM (inactive) | > 100 µM (inactive) | > 100 µM (inactive) | > 100 µM (inactive)
6 | CSC1=Nc2ccccc2-c2nc3ccccc3cc2C1 | > 100 µM (inactive) | > 100 µM (inactive) | 29.9 µM (inactive) | > 100 µM (inactive) | > 100 µM (inactive) | > 100 µM (inactive) | > 100 µM (inactive) | > 100 µM (inactive) | > 100 µM (inactive) | > 100 µM (inactive) | > 100 µM (inactive) | > 100 µM (inactive) | > 100 µM (inactive) | > 100 µM (inactive) | > 100 µM (inactive) | > 100 µM (inactive) | 69.2 µM (inactive) | > 100 µM (inactive) | > 100 µM (inactive) | > 100 µM (inactive)
7 | Cc1ccccc1C(=O)N/N=C/c1ccc(Sc2nccn2C)c([N+](=O)[O-])c1 | 71.9 µM (inactive) | 42.4 µM (inactive) | 40 µM (inactive) | 41.3 µM (inactive) | > 100 µM (inactive) | > 100 µM (inactive) | 50.8 µM (inactive) | > 100 µM (inactive) | 58.5 µM (inactive) | 85.9 µM (inactive) | 68.7 µM (inactive) | > 100 µM (inactive) | > 100 µM (inactive) | 67.8 µM (inactive) | 14.3 µM (inactive) | 56 µM (inactive) | 61.9 µM (inactive) | > 100 µM (inactive) | > 100 µM (inactive) | 80.2 µM (inactive)
